Columns and labels:
Assay type in all cases: biochemical
PARP10 FL = target: T1, PARP10 FL (Homo sapiens, UniProt Q53GL7); assay: […]-NAD+ ADP-ribosylation of RNA, urea-PAGE autoradiography; conditions: acceptor 5'-phosphorylated ssRNA; 50 uM NAD+, 5 mM MgCl2, pH 7.6, 37 °C; labelled compound
T1 construct: full length, His6-SUMO-TEV vector, E. coli Rosetta DE3, Ni, heparin and gel filtration
T1 sequence (Q53GL7 1-1025): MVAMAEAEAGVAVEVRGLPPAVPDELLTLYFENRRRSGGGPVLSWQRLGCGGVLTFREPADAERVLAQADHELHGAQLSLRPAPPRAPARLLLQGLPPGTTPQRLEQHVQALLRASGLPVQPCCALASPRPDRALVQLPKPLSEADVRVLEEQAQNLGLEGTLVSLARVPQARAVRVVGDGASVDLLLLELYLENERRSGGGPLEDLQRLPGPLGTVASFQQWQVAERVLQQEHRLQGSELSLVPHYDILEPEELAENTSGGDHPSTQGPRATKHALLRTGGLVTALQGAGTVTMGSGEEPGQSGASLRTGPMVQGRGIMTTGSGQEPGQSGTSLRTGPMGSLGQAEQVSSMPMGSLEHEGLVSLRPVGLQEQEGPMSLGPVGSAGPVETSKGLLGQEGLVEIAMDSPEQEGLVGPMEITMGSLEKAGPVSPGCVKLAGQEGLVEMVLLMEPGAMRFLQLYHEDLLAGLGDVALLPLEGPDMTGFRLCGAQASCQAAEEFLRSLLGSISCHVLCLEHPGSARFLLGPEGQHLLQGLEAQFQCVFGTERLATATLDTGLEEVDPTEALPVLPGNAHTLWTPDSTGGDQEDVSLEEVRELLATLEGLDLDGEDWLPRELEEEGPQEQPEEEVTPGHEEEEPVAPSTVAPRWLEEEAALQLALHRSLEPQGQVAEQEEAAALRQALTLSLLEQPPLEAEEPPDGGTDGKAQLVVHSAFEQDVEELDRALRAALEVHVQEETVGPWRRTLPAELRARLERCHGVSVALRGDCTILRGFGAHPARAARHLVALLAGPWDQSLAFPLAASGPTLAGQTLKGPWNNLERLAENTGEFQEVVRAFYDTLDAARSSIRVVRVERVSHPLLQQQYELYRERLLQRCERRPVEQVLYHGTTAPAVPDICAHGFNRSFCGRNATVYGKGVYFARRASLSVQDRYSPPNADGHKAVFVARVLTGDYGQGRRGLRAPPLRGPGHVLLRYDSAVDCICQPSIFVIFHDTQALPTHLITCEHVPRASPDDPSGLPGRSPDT

PARP3 FL = target: T2, PARP3 FL (Homo sapiens, UniProt Q9Y6F1); assay: […]-NAD+ ADP-ribosylation of DNA, urea-PAGE autoradiography; conditions: acceptor DNA ends; pH 7.6, 37 °C; labelled compound
T2 construct: full length, His tag (pDEST17)
T2 sequence (Q9Y6F1 1-533): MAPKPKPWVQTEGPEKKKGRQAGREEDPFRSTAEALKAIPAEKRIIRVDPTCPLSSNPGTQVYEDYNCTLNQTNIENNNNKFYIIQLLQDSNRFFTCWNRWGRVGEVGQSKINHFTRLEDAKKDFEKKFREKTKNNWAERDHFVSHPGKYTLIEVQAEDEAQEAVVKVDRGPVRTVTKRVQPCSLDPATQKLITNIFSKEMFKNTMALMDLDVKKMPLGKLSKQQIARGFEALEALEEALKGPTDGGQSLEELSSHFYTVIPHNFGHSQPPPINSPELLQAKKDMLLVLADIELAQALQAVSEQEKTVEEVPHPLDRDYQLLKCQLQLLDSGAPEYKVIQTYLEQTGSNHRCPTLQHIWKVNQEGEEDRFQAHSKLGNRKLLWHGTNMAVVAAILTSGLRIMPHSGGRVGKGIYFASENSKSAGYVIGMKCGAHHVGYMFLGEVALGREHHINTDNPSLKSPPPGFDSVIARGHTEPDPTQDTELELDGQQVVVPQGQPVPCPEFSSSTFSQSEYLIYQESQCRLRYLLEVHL

PARP10 cat = target: T3, PARP10 cat (Homo sapiens, UniProt Q53GL7); assay: […]-NAD+ ADP-ribosylation of RNA, urea-PAGE autoradiography; conditions: acceptor 5'-phosphorylated ssRNA; 50 uM NAD+, 5 mM MgCl2, pH 7.6, 37 °C; labelled compound
T3 construct: catalytic domain (818-1025), GST tag (pGEX-4T1), E. coli Rosetta DE3, gel filtration
T3 sequence (Q53GL7 818-1025): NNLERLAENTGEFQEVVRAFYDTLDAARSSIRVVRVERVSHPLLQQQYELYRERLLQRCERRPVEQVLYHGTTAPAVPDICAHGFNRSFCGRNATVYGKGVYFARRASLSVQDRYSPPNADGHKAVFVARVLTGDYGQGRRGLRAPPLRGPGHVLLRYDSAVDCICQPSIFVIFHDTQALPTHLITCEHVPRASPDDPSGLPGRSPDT

TRPT1 = target: T4, TRPT1 (Homo sapiens, UniProt Q86TN4); assay: as above; conditions: acceptor 5'-phosphorylated ssRNA; 50 uM NAD+, 5 mM MgCl2, pH 7.6, 37 °C; labelled compound
T4 construct: codon-optimised synthetic gene, His tag, pET28a, E. coli Rosetta DE3, Ni and gel filtration
T4 sequence (Q86TN4 1-253): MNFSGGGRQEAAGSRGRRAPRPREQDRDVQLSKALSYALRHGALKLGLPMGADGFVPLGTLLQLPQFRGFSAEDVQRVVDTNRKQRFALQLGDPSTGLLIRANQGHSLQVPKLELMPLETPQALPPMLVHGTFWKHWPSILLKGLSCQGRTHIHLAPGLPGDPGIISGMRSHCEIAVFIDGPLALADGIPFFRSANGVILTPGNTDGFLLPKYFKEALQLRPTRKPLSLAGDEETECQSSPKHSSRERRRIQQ

## NC(=O)c1ccc[n+]([C@@H]2O[C@H](COP(=O)(O)OP(=O)(O)OC[C@H]3O[C@@H](n4cnc5c(N)ncnc54)[C@H](O)[C@@H]3O)[C@@H](O)[C@H]2O)c1 [NAD+]
PARP10 FL
  32P-NAD+ ADP-ribosylation of RNA, urea-PAGE autoradiography: PARP10 full length can also ADP-ribosylate phosphorylated RNA ends
PARP3 FL
  32P-NAD+ ADP-ribosylation of DNA, urea-PAGE autoradiography: PARP3 could only ADP-ribosylate DNA ends
PARP10 cat
  32P-NAD+ ADP-ribosylation of RNA, urea-PAGE autoradiography: RNA ADP-ribosylation activity of PARP10 is time and NAD^+ concentration dependent
TRPT1
  32P-NAD+ ADP-ribosylation of RNA, urea-PAGE autoradiography: TRPT1 based RNA modification is time and NAD^+ concentration dependent
